Source: US20110269825A1, “Modified Thromboxane A2 Receptor Promoter Sequence” (priority 2008, published 2011)

Assays:
[1] = test system: Prm1-directed luciferase expression; assay: Effect of PMA, PD98059 or Vitamin D3 on Prm1-directed luciferase expression in HEL cells; type: cell-based, human
Experimental: HEL and EA.hy 926 cells were co-transfected with the various pGL3Basic-recombinant plasmids (2 mg), encoding firefly luciferase, along with pRL-TK (200 ng), encoding renilla luciferase, using DMRIE-C® transfection reagent. HEK293, WI-38, and 1° hAoSMCs were co-transfected with the pGL3Basic-recombinant plasmids (2 mg), along with pRL-TK (200 ng), using Effectene transfection reagent. In all cases, cells co-transfected with pRL-TK (200 ng) in the presence of either the pGL3Control vector (firefly luciferase gene under the control of the SV40 promoter; 2 mg) or the promoter-less pGL3Basic empty vector (2 mg), which served as positive and negative controls, respectively. […] Relative firefly to renilla luciferase activity (arbitrary units) was calculated as a ratio and was expressed in relative luciferase units (RLU). To investigate the effect of over-expression of exon 5 (+ or −) or KTS (+ or −) isoforms of WT1 on Prm1-directed gene expression, HEL cells were co-transfected with either pGL3b:Prm1 or pGL3b:Prm1D (1.5 μg) plus 200 ng of pRL-TK along with either pcDNA3:WT1 (+/+), pcDNA3:WT1 (+/−), pcDNA3:WT1 (−/+), pcDNA3:WT1 (−/−) (0.5 μg), or as a control, pcDNA3 (0.5 μg). […] The plasmid pCMV5-NAB1, containing the entire coding sequence for NAB1, was generously donated by Dr. Gerald Thiel, University of Saarland Medical Center, Homburg, Germany, and has been described previously (Thiel et al., 2000). To investigate the effect of over-expression of NAB1 on the PMA-mediated induction of Prm1-directed gene expression, HEL cells were transiently co-transfected with pGL3b:Prm1 (2 μg) plus pRL-TK (200 ng) along with either pCMV5 (control) or pCMV:NAB1 (1 μg).

Egr1 = assay: Immunoblot analysis of Egr1 expression in HEL cells; type: cell-based, human; conditions: 100 nM PMA plus 10 μM PD98059, 16 h
Experimental: The expression of WT1, Sp1, Egr1, NF-E2, GATA-1 and Ets-1 proteins in HEL cells was confirmed by western blot analysis. Briefly, whole cell protein was resolved by SDS-PAGE (10% acrylamide gels) and transferred to polyvinylidene difluoride (PVDF) membrane according to standard methodology. […] For PMA studies, HEL cells were pre-incubated for the indicated amount of time with 100 nM PMA, with 10 μM PD98059, with 100 nM PMA plus 10 μM PD98059 or, as a control, with vehicle [0.1% (v/v) DMSO]. Whole cell protein (60 μg per lane) was resolved by SDS-PAGE (10% acrylamide gels) and transferred to polyvinylidene difluoride (PVDF) membrane according to standard methodology.

Compound	Effect on luciferase expression directed by the Prm1K sub-fragment ([1]; 100 nM PMA plus 10 μM PD98059, 16 h)	PMA-induction of Prm1-directed luciferase expression in the presence of PD98059 ([1]; 100 nM PMA plus 10 μM PD98059, 16 h, 4.3-fold with PMA alone) [fold]	Effect on PMA-induction of Egr1 protein expression (Egr1)	Effect on luciferase expression directed by Prm1K ([1]; 80 nM Vitamin D3, 24 h or 30 h)	Increase in Prm1-directed luciferase expression ([1]; 80 nM Vitamin D3, 30 h) [fold]
COc1cccc(-c2cc(=O)c3ccccc3o2)c1N [PD98059, 2-(2-amino-3-methoxyphenyl)-4H-1-benzopyran-4-one]	neither PMA alone (p=0.4721) nor PMA plus PD98059 (p=0.2693) had any significant effect	2.3	completely abolished the PMA-induction of Egr1 protein expression		
C=C1/C(=C\C=C2/CCC[C@]3(C)[C@@H]([C@H](C)CCCC(C)(C)O)CC[C@@H]23)C[C@@H](O)C[C@@H]1O [Vitamin D3, 1α, 25-dihydroxy-vitamin D3]				no significant effect on luciferase expression directed by Prm1K	1.6
